The source of these data is patent publication US6855843B2, “Inhibitors of α4 mediated cell adhesion” (Tanabe Seiyaku Co., Ltd., priority 1998, dated 2005).

This test deals with T1, α4β7 (adhesion of RPMI cells to CS-1) (Homo sapiens, UniProt P13612+P26010).
T1 construct: endogenous in cells
T1 sequence (P13612 34-1032): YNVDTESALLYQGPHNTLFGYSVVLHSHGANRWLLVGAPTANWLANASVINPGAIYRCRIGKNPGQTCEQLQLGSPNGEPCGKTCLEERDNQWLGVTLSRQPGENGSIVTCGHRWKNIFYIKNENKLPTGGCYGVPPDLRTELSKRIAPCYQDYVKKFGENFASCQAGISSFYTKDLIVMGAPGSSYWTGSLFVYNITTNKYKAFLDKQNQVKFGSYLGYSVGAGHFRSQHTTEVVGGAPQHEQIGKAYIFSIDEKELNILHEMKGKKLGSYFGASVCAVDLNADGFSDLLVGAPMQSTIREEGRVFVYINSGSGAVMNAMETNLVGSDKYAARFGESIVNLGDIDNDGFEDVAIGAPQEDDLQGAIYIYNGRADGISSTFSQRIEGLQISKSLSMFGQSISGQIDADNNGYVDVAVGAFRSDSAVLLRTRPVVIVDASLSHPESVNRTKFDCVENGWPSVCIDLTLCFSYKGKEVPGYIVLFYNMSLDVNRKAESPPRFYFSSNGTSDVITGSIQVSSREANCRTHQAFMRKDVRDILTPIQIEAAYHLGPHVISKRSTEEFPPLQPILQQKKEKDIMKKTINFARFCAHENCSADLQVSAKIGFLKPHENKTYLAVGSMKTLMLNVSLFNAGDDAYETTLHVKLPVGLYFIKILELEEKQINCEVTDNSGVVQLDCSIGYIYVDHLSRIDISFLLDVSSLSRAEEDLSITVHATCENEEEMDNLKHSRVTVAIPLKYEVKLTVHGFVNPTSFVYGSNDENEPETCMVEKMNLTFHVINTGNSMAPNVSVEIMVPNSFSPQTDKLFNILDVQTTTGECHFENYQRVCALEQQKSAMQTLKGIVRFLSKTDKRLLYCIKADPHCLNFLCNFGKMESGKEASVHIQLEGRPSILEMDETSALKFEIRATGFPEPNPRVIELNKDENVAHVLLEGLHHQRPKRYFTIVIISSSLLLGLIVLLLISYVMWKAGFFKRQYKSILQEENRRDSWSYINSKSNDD
T1 sequence (P26010 20-798): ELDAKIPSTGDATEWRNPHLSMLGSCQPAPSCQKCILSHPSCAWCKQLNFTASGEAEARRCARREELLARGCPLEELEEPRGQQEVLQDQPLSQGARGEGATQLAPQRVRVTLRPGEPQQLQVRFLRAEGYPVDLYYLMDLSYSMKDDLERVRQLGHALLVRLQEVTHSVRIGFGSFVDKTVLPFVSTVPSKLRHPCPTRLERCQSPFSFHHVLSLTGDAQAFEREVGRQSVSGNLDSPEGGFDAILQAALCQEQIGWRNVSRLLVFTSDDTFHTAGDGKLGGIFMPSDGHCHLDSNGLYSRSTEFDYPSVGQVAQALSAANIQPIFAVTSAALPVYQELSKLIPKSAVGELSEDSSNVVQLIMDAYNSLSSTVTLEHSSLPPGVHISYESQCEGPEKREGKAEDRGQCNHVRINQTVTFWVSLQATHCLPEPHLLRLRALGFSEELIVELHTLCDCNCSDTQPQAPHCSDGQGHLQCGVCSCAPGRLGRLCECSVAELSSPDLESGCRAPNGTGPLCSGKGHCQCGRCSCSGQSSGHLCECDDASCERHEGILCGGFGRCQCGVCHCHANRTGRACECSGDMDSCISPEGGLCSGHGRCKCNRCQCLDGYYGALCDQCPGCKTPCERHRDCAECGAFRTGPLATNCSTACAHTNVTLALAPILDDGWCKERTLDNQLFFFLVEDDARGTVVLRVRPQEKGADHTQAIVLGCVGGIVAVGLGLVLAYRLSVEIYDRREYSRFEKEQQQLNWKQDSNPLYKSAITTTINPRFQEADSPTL
The test is described as follows: RPMI-CS-1 cell adhesion assay. The settings on record: adhesion of RPMI B-cell line (expresses α4β7) to CS-1 peptide coated microwells; read-out: RPMI-CS-1 IC50 value range. Format: cell-based.
By IC50 is commonly meant the midpoint of a concentration-inhibition curve. Turning to `CS(=O)(=O)c1ccccc1-c1ccc(C[C@H](NC(=O)c2c(Cl)cccc2Cl)C(=O)O)cc1` [Example 152B, N-(2,6-Dichlorobenzoyl)-4-[2-(methylsulfonyl)phenyl]-L-phenyl-alanine], the concentration for half-maximal inhibition (IC50) was below 300 nM.

`O=C(N[C@@H](Cc1ccc(-c2ccccn2)cc1)C(=O)O)c1c(Cl)cccc1Cl` [Example 137]: the IC50 was in the range of 300 to 1000 nM.

Take `COc1ccccc1-c1ccc(C[C@H](NC(=O)c2ccc(NC(C)=O)cc2Cl)C(=O)O)cc1` [Example 67, N-[2-Chloro-4-(acetylamino)benzoyl]-4-(2-methoxyphenyl)-L-phenylalanine]: the half-inhibitory concentration (IC50) fell in the range of 300 to 1000 nM.

As for `COc1cc(CN2CC(C)OC(C)C2)cc(OC)c1-c1ccc(C[C@H](NC(=O)c2c(Cl)cccc2Cl)C(=O)O)cc1` (stereo partly drawn) [Example 245], the IC50 was below 300 nM.

For `O=C(N[C@@H](Cc1ccc(-c2c(OCCO)ccc3c2OCO3)cc1)C(=O)O)c1c(Cl)cccc1Cl` [Example 238, N-(2,6-Dichlorobenzoyl)-4-[2,3-methylenedioxy-6-(2-hydroxyethoxy)phenyl]-L-phenylalanine], the IC50 was below 300 nM.

Consider `O=C(N[C@@H](Cc1ccc(-c2cc3ccccc3o2)cc1)C(=O)O)c1c(Cl)cccc1Cl` [Example 130], for which the IC50 was above 5000 nM.

For the molecule `O=C(N[C@@H](Cc1ccc(-c2ccccc2O)cc1)C(=O)O)c1c(Cl)cccc1Cl` [Example 30, N-(2,6-Dichlorobenzoyl)-4-(2-hydroxyphenyl)-L-phenylalanine], the IC50 is 300 to 1000 nM.

In the case of `COc1ccccc1-c1ccc(C[C@H](NC(=O)c2ccc(C(=O)O)cc2Cl)C(=O)O)cc1` [Example 177, N-[2-Chloro-4-carboxybenzoyl]-4-(2-methoxyphenyl)-L-phenylalanine], the IC50 is below 300 nM.

`COc1ccccc1-c1ccc(C[C@H](NC(=O)c2ccc(NS(=O)(=O)c3ccc(F)cc3)cc2Cl)C(=O)O)cc1` [Example 189, N-[2-Chloro-4-[[(4-fluorophenyl)sulfonyl]amino]benzoyl]-4-(2-methoxyphenyl)-L-phenylalanine]: the IC50 was below 300 nM.

Turning to `CS(=O)(=O)Nc1cccc(-c2ccc(C[C@H](NC(=O)c3c(Cl)cccc3Cl)C(=O)O)cc2)c1` [Example 123], the half-maximal inhibitory concentration (IC50) fell in the range of 1000 to 5000 nM.

Turning to `COc1cccc(OC)c1-c1ccc(C[C@H](NC(=O)c2ccc(OC(C)C)cc2Cl)C(=O)O)cc1` [Example 285], the 50% inhibitory concentration (IC50) was below 300 nM.

Regarding `COC(=O)[C@H](Cc1ccc(-c2ccccc2CNCc2ccccc2)cc1)NC(=O)c1c(Cl)cccc1Cl` [Example 114], the IC50 was 300 to 1000 nM.

Consider `COc1ccccc1-c1ccc(C[C@H](NC(=O)c2c(Cl)cccc2Cl)C(=O)O)cc1C(C)=NO` [Example 351, N-(2,6-Dichlorobenzoyl)-3-[1-(hydroxyimino)ethyl]-4-(2-methoxyphenyl)-L-phenylalanine], for which the IC50 was below 300 nM.

On to `COc1ncnc(OC)c1-c1ccc(C[C@H](NC(=O)c2c(Cl)cccc2Cl)C(=O)O)cc1` [Example 144], for which the 50% inhibitory concentration (IC50) was below 300 nM.

Turning to `CN(C)CCOc1ccc2c(c1-c1ccc(C[C@H](NC(=O)c3c(Cl)cccc3Cl)C(=O)O)cc1)OCO2` [Example 234, N-(2,6-Dichlorobenzoyl)-4-[2,3-methylenedioxy-6-[2-(N,N-dimethylamino)ethoxy]phenyl]-L-phenylalanine], the concentration for half-maximal inhibition (IC50) was below 300 nM.

Take `CC(=O)Nc1cccc(-c2ccc(C[C@H](NC(=O)c3c(Cl)cccc3Cl)C(=O)O)cc2)c1` [Example 124]: the IC50 lay in the range of 1000 to 5000 nM.

As for `CNS(=O)(=O)c1ccccc1-c1ccc(C[C@H](NC(=O)c2c(Cl)cccc2Cl)C(=O)O)cc1` [Example 20, N-(2,6-Dichlorobenzoyl)-4-[2-(N-methylsulfamoyl)phenyl]-L-phenylalanine], the 50% inhibitory concentration (IC50) was below 300 nM.

For the molecule `COc1cccc(N(C)C)c1-c1ccc(C[C@H](NC(=O)c2c(Cl)cccc2Cl)C(=O)O)cc1` [Example 29, N-(2,6-Dichlorobenzoyl)-4-[2-(N,N-dimethylamino)-6-methoxyphenyl]-L-phenylalanine], the IC50 lay in the range of 1000 to 5000 nM.

`COc1ccc(-c2ccc(C[C@H](NC(=O)c3c(Cl)cccc3Cl)C(=O)O)cc2)c(OC)c1` [Example 9, N-(2,6-Dichlorobenzoyl)-4-(2,4-dimethoxyphenyl)-L-phenylalanine]: the IC50 is below 300 nM.

For `COc1cccc(OC)c1-c1ccc(C[C@H](NC(=O)c2c(C)cccc2Cl)C(=O)O)cc1` [Example 277], the concentration for half-maximal inhibition (IC50) was below 300 nM.

`Nc1cccc(-c2ccc(C[C@H](NC(=O)c3c(Cl)cccc3Cl)C(=O)O)cc2)c1` [Example 122]: the IC50 is 1000 to 5000 nM.

As for `COc1cc(CN2CCNCC2)cc(OC)c1-c1ccc(C[C@H](NC(=O)c2c(Cl)cccc2Cl)C(=O)O)cc1` [Example 262, N-(2,6-Dichlorobenzoyl)-4-[2,6-dimethoxy-4-[(1-piperazinyl)methyl]phenyl]-L-phenylalanine], the half-inhibitory concentration (IC50) was below 300 nM.

As to `O=C(O)c1ccccc1-c1ccc(C[C@H](NC(=O)c2c(Cl)cccc2Cl)C(=O)O)cc1` [Example 52, N-(2,6-Dichlorobenzoyl)-4-(2-carboxyphenyl)-L-phenylalanine], the half-inhibitory concentration (IC50) is above 5000 nM.

For the molecule `O=C(N[C@@H](Cc1ccc(-c2ccccc2)cc1)C(=O)O)c1ccccc1[N+](=O)[O-]` [Example 110], the concentration for half-maximal inhibition (IC50) was above 5000 nM.

Consider `Nc1ccccc1-c1ccc(C[C@H](NC(=O)c2c(Cl)cccc2Cl)C(=O)O)cc1` [Example 23, N-(2,6-Dichlorobenzoyl)-4-(2-aminophenyl)-L-phenylalanine], for which the half-inhibitory concentration (IC50) is 300 to 1000 nM.

`N#CCOc1ccc2c(c1-c1ccc(C[C@H](NC(=O)c3c(Cl)cccc3Cl)C(=O)O)cc1)OCO2` [Example 239, N-(2,6-Dichlorobenzoyl)-4-[2,3-methylenedioxy-6-(cyanomethoxy)phenyl]-L-phenylalanine]: the IC50 is below 300 nM.

Regarding `COc1ccccc1-c1ccc(C[C@H](NC(=O)c2ccc(C(=O)NS(C)(=O)=O)cc2Cl)C(=O)O)cc1` [Example 179, N-[2-Chloro-4-[N-(methanesulfonyl)carbamoyl]-benzoyl]-4-(2-methoxyphenyl)-L-phenylalanine], the half-inhibitory concentration (IC50) was below 300 nM.

Consider `COc1cc(CN2CCC3(CC2)OCCO3)cc(OC)c1-c1ccc(C[C@H](NC(=O)c2c(Cl)cccc2Cl)C(=O)O)cc1` [Example 244], for which the IC50 was below 300 nM.

On to `COc1cc(CN(C)C)cc(OC)c1-c1ccc(C[C@H](NC(=O)c2c(Cl)cccc2Cl)C(=O)O)cc1` [Example 255, N-(2,6-Dichlorobenzoyl)-4-[2,6-dimethoxy-4-[(N,N-dimethylamino)methyl]phenyl]-L-phenylalanine], for which the 50% inhibitory concentration (IC50) was below 300 nM.

`COc1ccccc1-c1ccc(C[C@H](NC(=O)c2ccc(NS(=O)(=O)c3cccs3)cc2Cl)C(=O)O)cc1` [Example 191, N-[2-Chloro-4-[(2-thienylsulfonyl)amino]benzoyl]-4-(2-methoxyphenyl)-L-phenylalanine]: the 50% inhibitory concentration (IC50) is below 300 nM.

Take `COc1ccccc1-c1ccc(C[C@H](NC(=O)c2ccc(CC(C)C)cc2)C(=O)O)cc1` [Example 102]: the half-inhibitory concentration (IC50) was above 5000 nM.

Take `COc1cccc(OC)c1-c1ccc(C[C@H](NC(=O)c2c(Cl)cccc2Cl)C(=O)O)cc1N1CCCC1=O` [Example 300, N-(2,6-dichlorobenzoyl)-3-(2-oxo-1-pyrrolidinyl)-4-(2,6-dimethoxyphenyl)-L-phenylalaine]: the concentration for half-maximal inhibition (IC50) lay within 300 to 1000 nM.

Regarding `Cc1noc(C)c1COc1ccccc1-c1ccc(C[C@H](NC(=O)c2c(Cl)cccc2Cl)C(=O)O)cc1` [Example 41], the IC50 lay within 1000 to 5000 nM.
